In article PMC7447754 (Nature Communications, 2020):
Where a SMILES comes first, the peptide text is derived from it.

Test system: H1N1 virus
Conditions: pH 4.9

For `CC[C@H](C)[C@H](NC(=O)[C@H](C)NC(=O)CNC(=O)[C@@H](N)CC(N)=O)C(=O)N[C@@H](CS)C(=O)N[C@@H](Cc1c[nH]c2ccccc12)C(=O)NCC(=O)N1CCC[C@H]1C(=O)N[C@@H](CS)C(=O)N1CCC[C@H]1C(=O)N[C@H](C(=O)N[C@@H](C)C(=O)N[C@@H](Cc1ccccc1)C(=O)N[C@@H](CCCNC(=N)N)C(=O)N[C@@H](CCC(N)=O)C(=O)N[C@H](C(=O)NCC(=O)N[C@@H](CC(N)=O)C(=O)N[C@@H](CS)C(=O)NCC(=O)N[C@@H](CCCNC(=N)N)C(=O)N[C@@H](Cc1ccccc1)C(=O)N[C@@H](CCCNC(=N)N)C(=O)N[C@H](C(=O)N[C@@H](CCCNC(=N)N)C(=O)N[C@@H](CS)C(=O)N[C@@H](CS)C(=O)N[C@@H](CCCNC(=N)N)C(=O)N[C@H](C(=O)N[C@@H](CCCNC(=N)N)C(=O)O)[C@@H](C)CC)C(C)C)[C@@H](C)CC)[C@@H](C)O` [P9R] (H-NGAICWGPCPTAFRQIGNCGRFRVRCCRIR-OH), the “inhibition of viral fusion (virus-induced hemolysis)” value was “did not inhibit viral fusion”.
